Consider four compounds from patent publication US5922891A, “2-substituted 1,8-dihydroxy-9(10H)-anthracenone pharmaceuticals” (priority 1997, dated 1999).

The test system of experiment [1] is HaCaT cells. Put plainly: Antiproliferative activity against HaCaT cells (human keratinocyte cell line). Particulars: 48 h, read-out: AA IC50 (antiproliferative activity). In kind it is cell-based.
The nature of experiment [2]: Inhibition of AAPH-induced lipid peroxidation in bovine brain phospholipid liposomes. The following applies: AAPH-induced; bovine brain phospholipid liposomes; N = 3 or more; read-out: LPO IC50 (inhibition of lipid peroxidation). Format: biochemical. On the procedure: Phospholipids were prepared essentially as described by Gutteridge, J. M. C., (Anal. Biochem., 82: 76-82 (1977)). Bovine brain tissue was cooled on ice, freed from blood vessels and washed repeatedly with 0.15 M NaCl, pH 7.4. The tissue was cut into pieces and then macerated with an ultra-turrax, passed through a fine-meshed sieve, and extracted four times with four times the volume of acetone. The extraction mixture was filtered by suction to remove the acetone, the residue dried under vacuum, and then repeatedly extracted with petroleum ether (40-60) using twice the volume of the original brain homogenate. The combined extracts were filtered, dried at 45° C., and dissolved in ether (one fifth the original brain volume). The mixture was treated with five times the volume of acetone, and the resulting precipitate was collected by suction-filtration, dried and stored under N2 at -20° C. in the dark. Bovine brain phospholipids were weighed into glass tubes and shaken in a vortex mixer (Heidolph) in the presence of five small glass beads (.phi. 4 mm) for 1 minute. The phospholipids were suspended in 0.15 M NaCl, pH 7.4, to a final concentration of 5 mg/ml. The mixture was purged with N2 for 1 minute and vigorously dispersed in a vortex mixer for 5 minutes. The liposomes were allowed to swell for 1 hour at 4° C., and vesicles with a mean size of 1-10 μm were obtained according to the method of Bangham, et al., (J. Mol. Biol., 13:238-252 (1965). The liposomes were stimulated with the azo initiator 2 2'-azobis (2-amidinopropane) hydrochloride according to the method of Gutteridge, J. M. C., (Anal. Biochem. 82:76-82 (1977)).
The following reagents were added to the glass tubes containing stimulating bovine brain phospholipid piposomes in the order and at the final concentrations listed: 0.3 ml HK2 PO4 --KOH buffer, pH 7.4 (30 mM), 0.29 ml double distilled H2 O, 0.2 ml liposomes (1 mg/ml), 0.2 ml FeCl3.H2 O (0.1 mM), 0.01 ml 2-substituted anthracenone compound of the invention (variable concentrations).
Appropriate blanks and controls using the vehicle (acetone) were conducted. The final reaction volumes were standardized to 1.0 ml. The reaction mixtures were incubated for 1 hour at 37° C. in a shaking water bath. […] of 20% (w/v) BHT, 0.5 ml 25% (w/v) HCl and 0.5 ml of 1% 2-thiobarbituric acid were added and the samples were heated at 100° C. for 15 minutes and then cooled in an ice bath (5 minutes). 2 ml of 1-butanol were added and the mixtures were vigorously shaken in a vortex mixer (Heidolph) for 15 seconds. The organic layer was separated by centrifugation at 3000 rpm (15 minutes) and absorbance at 532 nm was measured against butanol.

As usually defined, the IC50 is the point on the concentration scale where inhibition reaches its midpoint.

Take `COC(=O)CCCCc1ccc2c(c1O)C(=O)c1c(O)cccc1C2` [IVB, Methyl 5-(9,10-Dihydro-1,8-dihydroxy-9-oxo-2-anthracene)pentanoate]: the IC50 in experiment [1] came out at 1.8 µM; in experiment [2], 62 µM.
Consider `COC(=O)CCCCCc1ccc2c(c1O)C(=O)c1c(O)cccc1C2` [VB, Methyl 6-(9,10-Dihydro-1,8-dihydroxy-9-oxo-2-anthracene) hexaonate], for which the IC50 in experiment [2] is 120 µM.
Turning to `CC(C(=O)N(C)O)c1ccc2c(c1O)C(=O)c1c(O)cccc1C2` (stereo not drawn) [VIID, N-Hydroxy-N-methyl-2-(9,10-dihydro-1,8-dihydroxy-9-oxo-2-anthracene)propionamide], the 50% inhibitory concentration (IC50) stood at 1.5 µM in experiment [1] and 8 µM in experiment [2].
`COC(=O)C(c1ccc2c(c1O)C(=O)c1c(O)cccc1C2)C(C)C` (stereo not drawn) [VIIIB, Methyl 2-(9,10-Dihydro-1,8-dihydroxy-9-oxo-2-anthracene)-3-methylbutanoate]: the IC50 in experiment [2] came out at 165 µM.
